Measured values: PubChem BioAssay (NCI)
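Test compounds were applied to cells in 96-well plates for 48 hours at 5 doses. Abbreviation: GI50, concentration required for 50% inhibition of growth. TGI marks complete inhibition of growth.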

How the values were obtained:
Experiment in all cases: NCI-60 cell line screen, 48 h
[1] = system: ACHN renal
[2] = system: RPMI-8226 leukemia
[3] = system: HCC-2998 colon
[4] = system: HT29 colon
[5] = system: MDA-MB-231 breast
[6] = system: SW-620 colon
[7] = system: OVCAR-4 ovarian
[8] = system: A498 renal
[9] = system: SNB-75 CNS
[10] = system: KM12 colon

| Compound | TGI [1] [µM] | TGI [2] [µM] | TGI [3] [µM] | TGI [4] [µM] | TGI [5] [µM] | TGI [6] [µM] | TGI [7] [µM] | TGI [8] [µM] | TGI [9] [µM] | TGI [10] [µM] | GI50 [7] [µM] |
| --- | --- | --- | --- | --- | --- | --- | --- | --- | --- | --- | --- |
| CCC(C(=O)c1ccc(OC)c(OC)c1)N(C(=O)C(F)(F)F)C(C)c1ccccc1 (stereo not drawn) | > 100 | > 100 | > 100 | > 100 | > 100 | > 100 | – | – | – | – | – |
| CC(C)(C)C1CCC2(CC1)c1[nH]c3ccccc3c1C1(CCC(C(C)(C)C)CC1)c1[nH]c3ccccc3c12 (stereo not drawn) | > 100 | > 100 | > 100 | > 100 | – | > 100 | > 100 | > 100 | > 100 | > 100 | – |
| NC(=O)c1cc2ccccc2o/c1=N/O | > 100 | > 100 | > 100 | > 100 | > 100 | > 100 | – | – | > 100 | > 100 | – |
| Nc1ccc2[nH]c(-c3cccc(Cl)c3)cc(=O)c2c1 | > 100 | – | 54.4 | 29.5 | > 100 | > 100 | > 100 | – | > 100 | > 100 | > 100 |
| COc1ccc(Nc2nc3c([nH]2)c(=O)n(C)c(=O)n3C)cc1 | – | > 10 | > 10 | > 10 | > 10 | > 10 | > 10 | – | > 10 | > 10 | – |
| CCOc1cc(-c2nc3ccccn3c2/N=C/c2cc(Br)ccc2O)ccc1O | > 100 | > 100 | – | > 100 | > 100 | > 100 | 38.7 | 90.5 | 31.3 | – | – |
| O=[N+]([O-])c1ccc(-c2ccc(-c3csc(Nc4ccccn4)n3)o2)cc1 | > 100 | > 100 | > 100 | > 100 | – | > 100 | 50 | – | > 100 | > 100 | – |
| CCOC(=O)/C(C#N)=N\Nc1ccc(-n2c(C)nc3ccccc3c2=O)cc1 | > 100 | > 100 | – | > 100 | > 100 | > 100 | – | > 100 | > 100 | > 100 | – |
| CCC(=O)Oc1c2ccsc2c(OC(=O)CC)c2ccsc12 | 5.49 | – | 3.49 | 5.56 | 1.27 | 2.33 | 2.39 | 15 | 0.341 | 3.34 | – |
| O=C(N/N=C/c1cc(Br)cc(Br)c1[O-])c1ccccc1O.O=C(N/N=C/c1cc(Br)cc(Br)c1[O-])c1ccccc1O.[Fe+2] | 21.1 | – | 12.5 | 19.7 | – | 19.7 | 18.4 | – | 27.7 | 23.9 | – |
| COc1ccc2c(c1)CN1C(=N2)CSC1c1ccccc1Cl (stereo not drawn) | 41.8 | 29.9 | 29.8 | 32.8 | 67.5 | 41.7 | 45.1 | – | 48.8 | 34.8 | – |
| COc1c(Br)cc(CC(N)=O)c(O)c1Br | > 100 | – | > 100 | > 100 | – | > 100 | > 100 | > 100 | > 100 | > 100 | – |
| N#Cc1cc2c(cc1Cl)Sc1nccn1S2(=O)=O | 4.64 | 20.8 | – | 3.91 | 12.4 | 14.4 | 22.1 | 33 | 20.4 | 20.7 | – |
| COC(=O)C1=Nc2c(C)nn(-c3ccccc3)c2N=C(c2ccc([N+](=O)[O-])cc2)C1 | > 10 | > 10 | > 10 | > 10 | > 10 | > 10 | > 10 | – | > 10 | > 10 | – |
| O=C(Cc1ccc([N+](=O)[O-])cc1)OCC#CCOC(=O)Cc1ccc([N+](=O)[O-])cc1 | > 10 | – | – | > 10 | > 10 | > 10 | > 10 | – | > 10 | > 10 | – |
| Cn1c2ccccc2n2c(=O)c3cc([N+](=O)[O-])ccc3c(C#N)c12 | > 100 | > 100 | > 100 | > 100 | – | > 100 | > 100 | – | > 100 | > 100 | – |
| C=CCOCCCCC(C(C)=O)C(=O)OC (stereo not drawn) | > 100 | > 100 | > 100 | > 100 | – | > 100 | > 100 | > 100 | > 100 | > 100 | – |
| COC(=O)Cc1c([C@H]2[C@H](CC(=O)OC)c3ccccc3N2C(C)=O)[nH]c2ccccc12 | > 100 | > 100 | – | > 100 | > 100 | > 100 | – | > 100 | > 100 | > 100 | – |
| COc1ccc2cc(NC(=O)N/N=C\c3ccc(Cl)cc3)ccc2c1 | > 100 | > 100 | > 100 | > 100 | > 100 | > 100 | > 100 | – | > 100 | > 100 | – |
| COC(=O)C1CC2(c3ccccc3)C(=O)c3ccccc3N2O1 (stereo not drawn) | > 100 | 57 | > 100 | > 100 | – | > 100 | > 100 | > 100 | > 100 | > 100 | – |
| Cc1cc2[nH]c3c(C#N)c4c(c(=O)n3c2cc1C)CCCC4 | > 100 | – | > 100 | > 100 | > 100 | > 100 | > 100 | > 100 | – | > 100 | – |
| Brc1cc2nn(-c3ccccc3)nc2c2nonc12 | > 100 | > 100 | > 100 | > 100 | > 100 | > 100 | > 100 | – | > 100 | > 100 | – |
| CC1(C(=O)O)CCCC1C(=O)O (stereo not drawn) | > 100 | > 100 | – | > 100 | > 100 | > 100 | > 100 | > 100 | – | > 100 | – |
| O=C1C=CC(=O)c2c(O)c(NCCc3ccc(O)cc3)c(Cl)c(O)c21 | > 10 | > 10 | > 10 | > 10 | > 10 | > 10 | > 10 | – | > 10 | > 10 | – |

| Compound | TGI [1] [µM] | TGI [2] [µM] | TGI [3] [µM] | TGI [4] [µM] | TGI [5] [µM] | TGI [6] [µM] | TGI [7] [µM] | TGI [8] [µM] | TGI [9] [µM] | TGI [10] [µM] | GI50 [7] [µM] |
| --- | --- | --- | --- | --- | --- | --- | --- | --- | --- | --- | --- |
| O=[N+]([O-])c1ccc(NC(=S)N=Nc2c(O)[nH]c3ccc(Br)cc23)cc1 | 18 | – | – | 24.9 | 32 | 30 | 21.1 | 17.2 | 30.7 | 22 | – |
| Cn1c([O-])nc(-n2cc[n+](C)c2)cc1=O | > 100 | > 100 | – | > 100 | > 100 | > 100 | > 100 | > 100 | – | > 100 | – |
| CC1CC(=O)Nc2nc3ccccc3n21 (stereo not drawn) | > 100 | > 100 | – | > 100 | > 100 | > 100 | > 100 | > 100 | – | > 100 | – |
| NC(N)=Nc1ncccc1[N+](=O)[O-] | – | > 100 | > 100 | > 100 | – | > 100 | > 100 | > 100 | > 100 | > 100 | – |
| CC(=O)OCC(OC(C)=O)C1C[C@H]2O[C@@H]3[C@H](C[C@H]2O1)O[C@@]1(C[C@@H]3C)C[C@H](C)[C@@H]2O[C@]3(C[C@@H]2O1)C[C@H]1O[C@H]2[C@H](C)[C@H]4OC(=O)CC5CC[C@H]6OC7[C@H]8O[C@]9(CC[C@H]%10CC(O)(CO)[C@H](CC[C@H]%11C[C@@H](C)C(O)(CO)C(C[C@@H]4O[C@H]2C[C@H]1O3)O%11)O%10)CC8O[C@@H]7[C@@H](O9)[C@H]6O5 (stereo partly drawn) | > 1 | – | – | – | > 1 | > 1 | > 1 | > 1 | > 1 | > 0.333 | – |
| O=c1c2ccccc2nc(Nc2cccc(Cl)c2)n1/N=C/C=C/c1ccccc1 | > 100 | > 100 | > 100 | > 100 | > 100 | > 100 | > 100 | – | > 100 | > 100 | – |
| O=C(N/N=C/c1ccco1)c1cc(I)cc(I)c1O | > 50 | 43 | – | > 50 | – | > 50 | > 50 | 32.8 | > 50 | – | – |
| Cc1nc(C)c(Cc2ccccc2)o1 | > 100 | – | > 100 | > 100 | > 100 | > 100 | > 100 | > 100 | > 100 | > 100 | – |
| COC1(OC)CCCCC2c3cccc(OC(C)=O)c3C21OC(C)=O (stereo not drawn) | > 100 | > 100 | > 100 | > 100 | – | > 100 | > 100 | – | > 100 | > 100 | – |
| CNC(=O)N(CCC#N)[C@H]1CCCC[C@@H]1N(C(=O)NC)c1ccccc1 | > 100 | > 100 | > 100 | > 100 | > 100 | > 100 | > 100 | – | > 100 | > 100 | – |
| CC(C)(C)c1cc(/C=C(\C#N)C(=O)NCCO)cc(C(C)(C)C)c1O | 76.5 | 35.6 | – | 51.7 | 43.9 | 97 | 76.5 | 48.4 | 72.4 | 52.7 | – |
| FC(F)(F)c1ccc2nc3n(c2c1)C(c1c(Cl)cccc1Cl)SC3 (stereo not drawn) | 32.1 | – | 35 | 30.4 | 37.7 | 34.9 | 30.5 | 34.8 | 25.8 | 28.3 | – |
| OC1(c2ccc(Cl)cc2)c2ccc3ccccc3c2C2=N[C@H]3CCCC[C@@H]3N21 (stereo partly drawn) | > 100 | 31 | – | – | > 100 | > 100 | > 100 | 52.7 | – | > 100 | – |
| Nc1ccc(S(=O)(=O)Nc2nc3ccccc3nc2N2CCCCC2)cc1 | > 100 | > 100 | > 100 | > 100 | > 100 | > 100 | 87.7 | – | > 100 | > 100 | – |
| O=C(O)C(CO)NC(=O)n1c2ccccc2c2ccccc21 (stereo not drawn) | > 100 | > 100 | > 100 | > 100 | – | > 100 | – | – | – | > 100 | – |
| O=c1oc2cc(O)ccc2c(O)c1C(c1ccc(C(c2c(O)c3ccc(O)cc3oc2=O)c2c(O)c3ccc(O)cc3oc2=O)cc1)c1c(O)c2ccc(O)cc2oc1=O | – | – | > 100 | > 100 | > 100 | > 100 | > 100 | > 100 | > 100 | – | – |
| O=C(CC1=NCCN1)c1ccccc1 | – | > 750 | > 750 | > 750 | – | > 750 | > 750 | > 75 | > 750 | > 750 | – |
| CN(C)CCn1c(=O)c2ccc(NCCCN(C)CCCNc3ccc4c(=O)n(CCN(C)C)c(=O)n5c6ccc([N+](=O)[O-])cc6c(=O)c3c45)c3c(=O)c4cc([N+](=O)[O-])ccc4n(c1=O)c23 | 1.21 | – | 0.0921 | 0.726 | 0.125 | – | 0.0944 | 0.398 | 0.195 | 0.27 | – |
| O=c1[nH]nc(-c2ccccc2)c2[nH]c(-c3ccccc3)cc12 | – | > 100 | – | > 100 | – | > 100 | > 100 | – | > 100 | > 100 | – |
| Brc1cccc(N=NN2CCCC2)c1 | > 100 | 58.8 | – | – | > 100 | > 100 | > 100 | > 100 | > 100 | > 100 | – |
| C=C1C(=O)O[C@@]23C1CC[C@@H](C)C2CC[C@@]1(C)OC31 (stereo partly drawn) | 27.1 | 16.8 | 16.2 | 25.6 | – | 37.5 | 25.3 | 59.1 | 8.52 | 45.7 | – |
| O=C(O)C(CS)N=c1c2ccccc2n(O)c2ccccc12 (stereo not drawn) | > 100 | > 100 | > 100 | > 100 | – | > 100 | > 100 | > 100 | > 100 | > 100 | – |
| Cc1cc2ncc3c(=O)n(NS(=O)(=O)c4ccc(N)cc4)ccc3n2n1 | > 100 | – | – | > 100 | > 100 | > 100 | > 100 | > 100 | > 100 | > 100 | – |
